Our source for the EC50 values is patent US20250066344A1 (BRISTOL-MYERS SQUIBB COMPANY, priority 2021, published 2025).

The structures appear in SMILES notation. pEC50: −log10 of the molar value.

The target of this test is T1, human RXFP1 (Homo sapiens, UniProt Q9HBX9).
T1 construct: expressed in transfected cells
T1 sequence (Q9HBX9 1-757): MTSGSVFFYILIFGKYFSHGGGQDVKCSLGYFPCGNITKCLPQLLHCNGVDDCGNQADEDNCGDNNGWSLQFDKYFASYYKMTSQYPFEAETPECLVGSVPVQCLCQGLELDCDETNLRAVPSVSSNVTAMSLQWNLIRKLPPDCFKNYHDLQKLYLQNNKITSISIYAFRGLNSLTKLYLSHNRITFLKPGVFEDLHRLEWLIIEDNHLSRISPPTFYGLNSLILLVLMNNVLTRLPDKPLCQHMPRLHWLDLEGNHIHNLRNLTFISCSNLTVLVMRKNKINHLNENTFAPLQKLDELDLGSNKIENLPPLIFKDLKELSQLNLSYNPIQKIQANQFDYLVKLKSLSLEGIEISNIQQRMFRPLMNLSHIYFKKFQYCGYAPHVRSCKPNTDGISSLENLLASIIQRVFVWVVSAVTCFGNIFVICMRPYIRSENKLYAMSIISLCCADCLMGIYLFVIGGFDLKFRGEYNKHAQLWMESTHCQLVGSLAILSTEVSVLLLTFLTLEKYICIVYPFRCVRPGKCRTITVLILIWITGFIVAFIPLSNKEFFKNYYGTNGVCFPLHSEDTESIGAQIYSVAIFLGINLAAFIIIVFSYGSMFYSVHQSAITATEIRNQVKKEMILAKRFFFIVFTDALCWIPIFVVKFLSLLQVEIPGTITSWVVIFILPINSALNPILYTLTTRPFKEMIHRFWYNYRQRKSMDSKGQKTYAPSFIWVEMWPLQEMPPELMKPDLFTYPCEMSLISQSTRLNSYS
Description: RXFP1 cyclic adenosine monophosphate (cAMP) assay, hRXFP1 HEK293. It counts as cell-based. Conditions: HEK293 cells stably expressing human RXFP1; 30 min at room temperature; HTRF cAMP. In short, it runs like this:
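HEK293 cells stably expressing human RXFP1 were exposed to compounds (0.010 nM–50 μM, 2% DMSO) for 30 min at room temperature in HBSS/HEPES buffer with 0.5 mM IBMX. Intracellular cAMP was measured by HTRF against a cAMP standard curve; EC50 from 4-parameter logistic fit.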
For orientation: In TR-FRET formats the signal depends on donor and acceptor labels being close together.
For orientation: pEC50 means the EC50 on a negative log10 scale, so that one unit is a factor of ten. For the molecule `COc1ccc(-c2ccc3c(c2)CCNC3)cc1C(=O)Nc1cc2c(cc1C(=O)Nc1ccc(F)c(C(F)(F)F)c1)OC(F)(F)O2` [Example 93, 2,2-difluoro-N-(4-fluoro-3-(trifluoromethyl)phenyl)-6-(2-methoxy-5-(1,2,3,4-tetrahydroisoquinolin-6-yl)benzamido)benzo[d] [1,3]dioxole-5-carboxamide], the pEC50 is 5.96. For `COCC1CC(c2ccc(OC)c(C(=O)Nc3cc4c(cc3C(=O)Nc3ccc(F)c(C(F)(F)F)c3)OC(F)(F)O4)c2)=NO1` (stereo not drawn) [Example 83, 2,2-difluoro-N-(4-fluoro-3-(trifluoromethyl)phenyl)-6-(2-methoxy-5-(5-(methoxymethyl)-4,5-dihydroisoxazol-3-yl)benzamido)benzo[d] [1,3]dioxole-5-carboxamide] the value was 6.40; for `COc1ccc(C#CC(C)(C)O)cc1C(=O)Nc1cc2c(C)noc2cc1C(=O)Nc1ccc(F)c(C(F)(F)F)c1` [Example 34, N-(4-fluoro-3-(trifluoromethyl)phenyl)-5-(5-(3-hydroxy-3-methylbut-1-yn-1-yl)-2-methoxybenzamido)-methylbenzo[d]isoxazole-6-carboxamide], 5.87; for `COc1ccc(C(=O)N2CCC3(CC2)COC3)cc1C(=O)Nc1cc2c(cc1C(=O)Nc1ccc(F)c(C(F)(F)F)c1)OC(F)(F)O2` [Example 42, 2,2-difluoro-N-(4-fluoro-3-(trifluoromethyl)phenyl)-6-(2-methoxy-5-(2-oxa-7-azaspiro[3.5]nonane-7-carbonyl)benzamido) benzo[d][1,3]dioxole-5-carboxamide], 5.92. For `COc1ccc(S(=O)(=O)N2CCOC[C@@H]2CO)cc1C(=O)Nc1cc2nc(C)sc2cc1C(=O)Nc1ccc(F)c(C(F)(F)F)c1` [Example 14, (S)-N-(4-fluoro-3-(tri-fluoromethyl)-phenyl)-5-(5-((3-(hydroxy-methyl)morph-olino)sulfon-yl)-2-methoxy-benzamido)-2-methylbenzo [d]thiazole-6-carboxamide] the value was 5.85; for `COc1ccc(C2=NOC3(CCNC3)C2)cc1C(=O)Nc1cc2c(cc1C(=O)Nc1ccc(F)c(C(F)(F)F)c1)OC(F)(F)O2` (stereo not drawn) [Example 66, 2,2-difluoro-N-(4-fluoro-3-(trifluoromethyl)phenyl)-6-(2-methoxy-5-(1-oxa-2,7-diazaspiro[4.4]non-2-en-3-yl)benzamido)benzo[d] [1,3]dioxole-5-carboxamide], 6.47; for `COc1ccc(C2=NOC(CO)C2)cc1C(=O)Nc1cc2c(cc1C(=O)Nc1ccc(F)c(C(F)(F)F)c1)OC(F)(F)O2` (single isomer, unassigned) [Example 72, 2,2-difluoro-N-(4-fluoro-3-(trifluoromethyl)phenyl)-6-(5-(5-(hydroxymethyl)-4,5-dihydroisoxazol-3-yl)-2-methoxybenzamido) benzo[d][1,3]dioxole-5-carboxamide], 7.19.

Regarding `COc1ccc(C2=NOC3COCC23)cc1C(=O)Nc1cc2nc(C)sc2cc1C(=O)Nc1ccc(F)c(C(F)(F)F)c1` (single isomer, unassigned) [Example 2, N-(4-fluoro-3-(trifluoromethyl)phenyl)-5-(2-methoxy-5-(3a,4,6,6a-tetrahydrofuro[3,4-d]isoxazol-3-yl)benzamido)-2-methylbenzo[d]thiazole-6-carboxamide], the pEC50 is 6.00. For `COc1ccc(-c2cc(C(C)(C)O)on2)cc1C(=O)Nc1cc2c(cc1C(=O)Nc1ccc(F)c(C(F)(F)F)c1)OC(F)(F)O2` [Example 74] the value was 6.90. With `COc1ccc(C2=NOC3C4CCC(C4)C23)cc1C(=O)Nc1cc2nc(C)sc2cc1C(=O)Nc1ccc(F)c(C(F)(F)F)c1` (stereo not drawn) [Example 10, N-(4-fluoro-3-(trifluorometh-yl)phenyl)-5-(5-(3a,4,5,6,7,7a-hexahydro-4,7-methano-benzo[d]isox-azol-3-yl)-2-methoxybenz-amido)-2-methylbenzo [d]thiazole-6-carboxamide] the figure was 6.89; with `COc1ccc(-c2nc(N3CCOCC3)no2)cc1C(=O)Nc1cc2c(cc1C(=O)Nc1ccc(F)c(C(F)(F)F)c1)OC(F)(F)O2` [Example 87, 2,2-difluoro-N-(4-fluoro-3-(trifluoromethyl)phenyl)-6-(2-methoxy-5-(3-morpholino-1,2,4-oxadiazol-5-yl)benzamido)benzo[d] [1,3]dioxole-5-carboxamide], 6.79; with `COc1ccc(C2=NOC3CC(CO)CC23)cc1C(=O)Nc1cc2nc(C)sc2cc1C(=O)NC1CCCC1` (stereo not drawn) [Example 19, N-cyclopent-yl-5-(5-(5-(hydroxymeth-yl)-3a,5,6,6a-tetrahydro-4H-cyclopenta[d]isoxazol-3-yl)-2-methoxy-benzamido)-2-methylbenzo [d]thiazole-6-carboxamide], 6.00.

The molecule `COc1ccc(C2CCNC2)cc1C(=O)Nc1cc2c(cc1C(=O)Nc1ccc(F)c(C(F)(F)F)c1)OC(F)(F)O2` (single isomer, unassigned) [Example 54, 2,2-difluoro-N-(4-fluoro-3-(trifluoromethyl)phenyl)-6-(2-methoxy-5-(pyrrolidin-3-yl)benzamido)benzo[d] [1,3]dioxole-5-carboxamide] had a pEC50 of 6.17. With `COc1ccc(-c2cc(C(=O)O)ccc2F)cc1C(=O)Nc1cc2c(C)noc2cc1C(=O)Nc1ccc(F)c(C(F)(F)F)c1` [Example 31, 6-fluoro-3′-((6-((4-fluoro-3-(trifluoromethyl)phenyl)carbamoyl)-3-methylbenzo[d]isoxazol-5-yl)carbamoyl)-4′-methoxy-[1,1′-biphenyl]-3-carboxylic acid] the figure was 6.94; with `COc1ccc(C2=NOC3(CCNCC3)C2)cc1C(=O)Nc1cc2c(cc1C(=O)Nc1ccc(F)c(C(F)(F)F)c1)OC(F)(F)O2` [Example 67, 2,2-difluoro-N-(4-fluoro-3-(trifluoromethyl)phenyl)-6-(2-methoxy-5-(1-oxa-2,8-diazaspiro[4.5]dec-2-en-3-yl)benzamido)benzo[d] [1,3]dioxole-5-carboxamide], 6.51. The molecule `COc1ccc(C2=NOC(C(C)(C)O)C2)cc1C(=O)Nc1cc2c(cc1C(=O)Nc1ccc(F)c(C(F)(F)F)c1)OC(F)(F)O2` (single isomer, unassigned) [Example 76, 2,2-difluoro-N-(4-fluoro-3-(trifluoromethyl)phenyl)-6-(5-(5-(2-hydroxypropan-2-yl)-4,5-dihydroisoxazol-3-yl)-2-methoxybenzamido) benzo[d][1,3]dioxole-5-carboxamide] had a pEC50 of 6.59. Regarding `COc1ccc(-c2cnc3n2CCNC3)cc1C(=O)Nc1cc2c(cc1C(=O)Nc1ccc(F)c(C(F)(F)F)c1)OC(F)(F)O2` [Example 62, 2,2-difluoro-N-(4-fluoro-3-(trifluoromethyl)phenyl)-6-(2-methoxy-5-(5,6,7,8-tetrahydroimidazo[1,2-a]pyrazin-3-yl)benzamido)benzo[d] [1,3]dioxole-5-carboxamide], the pEC50 is 6.19. For `COc1ccc(-c2cc([C@H](C)O)on2)cc1C(=O)Nc1cc2c(cc1C(=O)Nc1ccc(F)c(C(F)(F)F)c1)OC(F)(F)O2` [Example 73, (S)-2,2-difluoro-N-(4-fluoro-3-(trifluoromethyl)phenyl)-6-(5-(5-(1-hydroxyethyl)isoxazol-3-yl)-2-methoxybenzamido) benzo[d][1,3]dioxole-5-carboxamide] the value was 7.02.
